Drawing on patent US9155795B2, “CXCR4 receptor compounds” (Anchor Therapeutics, Inc., priority 2010, dated 2015), this text covers Emax for eleven compounds.

Where a SMILES comes first, the peptide text is derived from it. [ ]: non-standard residue; d: D form. The star is where a group is joined. Palmitoyl = CCCCCCCCCCCCCCCC(=O)*; X1 = CCCCCCCCCCCCOCCC(=O)*; hSer = N[C@@H](CCO)C(=O)O; Nle = CCCC[C@H](N)C(=O)O

The test concerns the target T1, CXCR4 (Homo sapiens, UniProt P61073).
T1 construct: CCRF-CEM cells, a human T-cell ALL line that endogenously expresses CXCR4; endogenous in cells; host or cells: CCRF-CEM (human T-cell acute lymphoblastic leukemia line)
Kind of test: Calcium flux assay, agonist mode, Flexstation (CCRF-CEM cells). The class given is cell-based. The note with it: CCRF-CEM, percent of maximum response compared with SDF-1α, read-out: % Intrinsic Activity. The text has this:
Calcium Flux Assay is one of the most popular cell-based GPCR functional assays. It most often uses calcium sensing fluorescent dyes such as fura2 AM, fluo-4 and Calcium-4 to measure changes in intracellular calcium concentration. It is used mainly to detect GPCR signaling via Gαq subunit. Activation of these Gq-coupled GPCRs leads to activation of phospholipase C, which subsequently leads to increase in inositol phosphate production. IP3 receptors on endoplasmic reticulum sense the change then release calcium into cytoplasm. Intracellular calcium binding to the fluorescent dyes can be detected by instruments that quantify fluorescent intensities, such as FLIPR Tetra, Flexstation (MDS) and FDSS (Hamamatsu). In addition, to assess Gq-couple receptor signaling, a calcium flux assay can also be used to study Gs and Gi couple receptors by co-expressing CNG (cyclic nucleotide gated calcium channel) or chimeric G-proteins (Gqi5, Gsi5 for example). Activation of some Gi-coupled receptors can also be detected by calcium flux assay via Gβγ mediated phospholipase C activation.
The calcium flux assay was used to assess the test compounds' ability to activate the CXCR4 receptor in CCRF-CEM cells (human T lymphoblasts from acute lymphoblastic leukemia). […] After dye loading by incubating with Calcium-4 dye at 37° C. for 1 hour, cell plates were read at 37° C. using the using the Flexstation 3 workstation. Receptor activation was assessed by measuring changes in fluorescent intensity after the addition of the test compounds or the reference agonist SDF-1α on the using the Flexstation 3 workstation. EC50
and percent intrinsic actively were derived from the data collected. Intrinsic activity refers to the efficacy of the test compound and is calculated as the percent of maximum response compared with the response of the reference standard (i.e., natural agonist, SDF-1α).

T1 sequence (P61073 whole entry): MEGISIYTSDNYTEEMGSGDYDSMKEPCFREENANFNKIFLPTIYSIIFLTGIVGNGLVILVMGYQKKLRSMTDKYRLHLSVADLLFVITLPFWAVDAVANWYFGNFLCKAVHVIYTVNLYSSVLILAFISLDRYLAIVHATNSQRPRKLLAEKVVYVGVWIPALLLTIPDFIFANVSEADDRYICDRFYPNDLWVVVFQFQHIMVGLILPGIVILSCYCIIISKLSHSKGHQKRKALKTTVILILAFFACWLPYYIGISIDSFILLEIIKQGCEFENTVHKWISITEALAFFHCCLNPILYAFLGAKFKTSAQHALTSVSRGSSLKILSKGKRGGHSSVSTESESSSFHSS

`CCCCCCCCCCCCCCCC(=O)N[C@@H](CCSC)C(=O)NCC(=O)N[C@@H](Cc1ccc(O)cc1)C(=O)N[C@@H](CCC(N)=O)C(=O)N[C@@H](CCCCN)C(=O)N[C@@H](CCCCN)C(=O)N[C@@H](CC(C)C)C(=O)N1CCC[C@H]1C(=O)N[C@@H](CCCNC(=N)N)C(=O)N[C@@H](CO)C(=O)N[C@@H](CCSC)C(=O)N[C@H](C(=O)N[C@@H](CC(=O)O)C(=O)N[C@@H](CCCCN)C(=O)N[C@@H](Cc1ccc(O)cc1)C(=O)N[C@@H](CCCNC(=N)N)C(=O)N[C@@H](CC(C)C)C(N)=O)[C@@H](C)O` [Compound 7] (Palmitoyl-MGYQKKLPRSMTDKYRL-NH2; C-terminus assumed): the Emax turned out to be 100%.

In the case of `CCCCCCCCCCCCCCCC(=O)N[C@@H](CCSC)C(=O)NCC(=O)N[C@@H](Cc1ccc(O)cc1)C(=O)N[C@@H](CCC(N)=O)C(=O)N[C@@H](CCCCN)C(=O)N[C@@H](CCCCN)C(=O)N[C@@H](CC(C)C)C(=O)N[C@@H](CCCNC(=N)N)C(=O)N1CCC[C@H]1C(=O)N[C@@H](CO)C(=O)N[C@@H](CCSC)C(=O)N[C@H](C(=O)N[C@@H](CC(=O)O)C(=O)N[C@@H](CCCCN)C(=O)N[C@@H](Cc1ccc(O)cc1)C(=O)N[C@@H](CCCNC(=N)N)C(=O)N[C@@H](CC(C)C)C(N)=O)[C@@H](C)O` [Compound 8] (Palmitoyl-MGYQKKLRPSMTDKYRL-NH2; C-terminus assumed), the Emax was 88%.

`CCCCCCCCCCCCCCCC(=O)NCC(=O)NCC(=O)N[C@@H](Cc1ccc(O)cc1)C(=O)N[C@@H](CCC(N)=O)C(=O)N[C@@H](CCCCN)C(=O)N[C@@H](CCCCN)C(=O)N[C@@H](Cc1c[nH]cn1)C(=O)N[C@@H](CCCNC(=N)N)C(=O)N[C@@H](CO)C(=O)N[C@@H](C)C(=O)N[C@H](C(=O)N[C@@H](CC(=O)O)C(=O)N[C@@H](CCCCN)C(=O)N[C@@H](Cc1ccc(O)cc1)C(=O)N[C@@H](CCCNC(=N)N)C(=O)N[C@@H](CC(C)C)C(N)=O)[C@@H](C)O` [Compound 38] (Palmitoyl-GGYQKKHRSATDKYRL-NH2; C-terminus assumed): the Emax came out at 86.8%.

In the case of `CCCCCCCCCCCCCCCC(=O)N[C@@H](CCSC)C(=O)NCC(=O)N[C@@H](Cc1ccc(O)cc1)C(=O)N[C@@H](CCC(N)=O)C(=O)N[C@@H](CCCCN)C(=O)N[C@@H](CCCCN)C(=O)N[C@@H](CC(C)C)C(=O)N[C@@H](CCCNC(=N)N)C(=O)N[C@@H](CO)C(=O)N[C@@H](CCSC)C(=O)N[C@H](C(=O)N[C@@H](CC(=O)O)C(=O)N[C@@H](CCCCN)C(=O)N[C@@H](Cc1ccc(O)cc1)C(=O)N[C@@H](CCCCN)C(=O)N[C@@H](CC(C)C)C(N)=O)[C@@H](C)O` [Compound 13] (Palmitoyl-MGYQKKLRSMTDKYKL-NH2; C-terminus assumed), the Emax is 61.4%.

As for `CCCCCCCCCCCCCCCC(=O)N[C@@H](CCOC)C(=O)NCC(=O)N[C@@H](Cc1ccc(O)cc1)C(=O)N[C@@H](CCC(N)=O)C(=O)N[C@@H](CCCCN)C(=O)N[C@@H](CCCCN)C(=O)N[C@@H](CC(C)C)C(=O)N[C@@H](CCCNC(=N)N)C(=O)N[C@@H](CO)C(=O)N[C@@H](CCOC)C(=O)N[C@H](C(=O)N[C@@H](CC(=O)O)C(=O)N[C@@H](CCCCN)C(=O)N[C@@H](Cc1ccc(O)cc1)C(=O)N[C@@H](CCCNC(=N)N)C(=O)N[C@@H](CC(C)C)C(N)=O)[C@@H](C)O` [Compound 22] (Palmitoyl-[hSer](Me)GYQKKLRS[hSer](Me)TDKYRL-NH2), the Emax stood at 77.7%.

Consider `CCCCCCCCCCCCCCCC(=O)N[C@@H](CCSC)C(=O)NCC(=O)N[C@@H](Cc1ccc(O)cc1)C(=O)N[C@@H](CCC(N)=O)C(=O)N[C@@H](CCCCN)C(=O)N[C@@H](CCCCN)C(=O)N[C@@H](CC(C)C)C(=O)N[C@@H](CCCNC(=N)N)C(=O)N[C@@H](CO)C(=O)N[C@@H](CCSC)C(=O)N[C@H](C(=O)N[C@@H](CC(=O)O)C(=O)N[C@@H](CCCCN)C(=O)N[C@@H](Cc1ccc(O)cc1)C(=O)N[C@@H](CCCNC(=N)N)C(=O)N[C@@H](CCCC)C(N)=O)[C@@H](C)O` [Compound 12] (Palmitoyl-MGYQKKLRSMTDKYR[Nle]-NH2; C-terminus assumed), for which the Emax was found to be 73.2%.

As to `CCCCCCCCCCCCCCCC(=O)N[C@@H](CCSC)C(=O)NCC(=O)N[C@@H](Cc1ccc(O)cc1)C(=O)N[C@@H](CCC(N)=O)C(=O)N[C@@H](CCCCN)C(=O)N1CCC[C@H]1C(=O)N[C@@H](CC(C)C)C(=O)N[C@@H](CCCNC(=N)N)C(=O)N[C@@H](CO)C(=O)N[C@@H](CCSC)C(=O)N[C@H](C(=O)N[C@@H](CC(=O)O)C(=O)N[C@@H](CCCCN)C(=O)N[C@@H](Cc1ccc(O)cc1)C(=O)N[C@@H](CCCNC(=N)N)C(=O)N[C@@H](CC(C)C)C(N)=O)[C@@H](C)O` [Compound 6] (Palmitoyl-MGYQKPLRSMTDKYRL-NH2; C-terminus assumed), the Emax amounted to 90.2%.

On to `CCCCCCCCCCCCCCCC(=O)N[C@@H](CCSC)C(=O)NCC(=O)N[C@@H](Cc1ccc(O)cc1)C(=O)N[C@@H](CCC(N)=O)C(=O)N[C@@H](CCCCN)C(=O)N[C@@H](CCCCN)C(=O)N[C@@H](CC(C)C)C(=O)N[C@@H](CCCNC(=N)N)C(=O)N[C@@H](CO)C(=O)N1CCC[C@@H]1C(=O)N[C@@H](CCSC)C(=O)N[C@H](C(=O)N[C@@H](CC(=O)O)C(=O)N[C@@H](CCCCN)C(=O)N[C@@H](Cc1ccc(O)cc1)C(=O)N[C@@H](CCCNC(=N)N)C(=O)N[C@@H](CC(C)C)C(N)=O)[C@@H](C)O` [Compound 9] (Palmitoyl-MGYQKKLRS[dP]MTDKYRL-NH2; C-terminus assumed), for which the Emax came out at 77.9%.

Consider `CCCCCCCCCCCCCCCC(=O)N[C@@H](CCSC)C(=O)NCC(=O)N[C@@H](Cc1ccc(O)cc1)C(=O)N[C@@H](CCC(N)=O)C(=O)N[C@@H](CCCCN)C(=O)N[C@@H](CCCCN)C(=O)N[C@@H](CC(C)C)C(=O)N[C@@H](CCCNC(=N)N)C(=O)N[C@@H](CO)C(=O)N[C@@H](CCCC)C(=O)N[C@H](C(=O)N[C@@H](CC(=O)O)C(=O)N[C@@H](CCCCN)C(=O)N[C@@H](Cc1ccc(O)cc1)C(=O)N[C@@H](CCCNC(=N)N)C(=O)N[C@@H](CC(C)C)C(N)=O)[C@@H](C)O` [Compound 17] (Palmitoyl-MGYQKKLRS[Nle]TDKYRL-NH2; C-terminus assumed), for which the Emax is 62.7%.

On to `CCCCCCCCCCCCOCCC(=O)NCC(=O)NCC(=O)N[C@@H](Cc1ccc(O)cc1)C(=O)N[C@@H](CCC(N)=O)C(=O)N[C@@H](CCCCN)C(=O)N[C@@H](CCCCN)C(=O)N[C@@H](CC(C)C)C(=O)N[C@@H](CCCNC(=N)N)C(=O)N[C@@H](CO)C(=O)N[C@@H](C)C(=O)N[C@H](C(=O)N[C@@H](CC(=O)O)C(=O)N[C@@H](CCCCN)C(=O)N[C@@H](Cc1ccc(O)cc1)C(=O)N[C@@H](CCCNC(=N)N)C(=O)N[C@@H](CC(C)C)C(N)=O)[C@@H](C)O` [Compound 31] (X1-GGYQKKLRSATDKYRL-NH2; C-terminus assumed), for which the Emax came out at 84.2%.

For `CCCCCCCCCCCCCCCC(=O)NCC(=O)NCC(=O)N[C@@H](Cc1ccc(O)cc1)C(=O)N[C@@H](CCC(N)=O)C(=O)N[C@@H](CCCCN)C(=O)N[C@@H](CCCCN)C(=O)N[C@@H](CC(C)C)C(=O)N[C@@H](CCCNC(=N)N)C(=O)N[C@@H](CO)C(=O)N[C@@H](C)C(=O)N[C@H](C(=O)N[C@@H](CC(=O)O)C(=O)N[C@@H](CCCCN)C(=O)N[C@@H](Cc1ccc(O)cc1)C(=O)N[C@@H](CCCNC(=N)N)C(=O)N[C@@H](CC(C)C)C(=O)N[C@@H](Cc1c[nH]cn1)C(N)=O)[C@@H](C)O` [Compound 40] (Palmitoyl-GGYQKKLRSATDKYRLH-NH2; C-terminus assumed), the Emax came to 78.7%.
